Measurements reported in patent publication US4892876A, “Method for inhibiting HIV and an pharmaceutical composition therefor” (Nippon Kayaku Kabushiki Kaisha, priority 1987, dated 1990).

Columns and labels:
[1] = Toxicity, general statement including repetitive administration; assay type: in vivo
mice = test: Toxicity after 1 intraperitoneal administration in mice; assay type: in vivo; conditions: 1 administration of 800 mg/kg
MT-4 cell = test: Cytotoxic effect on MT-4 cell without virus; assay type: cell-based; conditions: at concentration of 30 ug/ml
Experimental: (§1) About 50,000 cells/ml of MT-4 cell was introduced into a tray having 24 holes. Further, 100 ul of a solution containing a predetermined quantity of oxcetanocin was added, and then it was cultured in a 5% (v/v) carbon dioxide gas incubator at 37° C. for 2 hours. Subsequently, 10^3 to 1.0^4 infective units of HIV were added and cultured for 5 days. Then, the inhibition of cytopathic effect was observed microscopically. Cytotoxic effect of oxcetanocin on MT-4 cell was examined without adding virus according to the above technique.

[2] = system: HIV (Human Immunodeficiency Virus); test: Development of virus antigen in HIV-infected MT-4 cells (fluorescent antibody technique); assay type: cell-based
[3] = system: HIV (Human Immunodeficiency Virus); test: Inhibition of HIV cytopathic effect in MT-4 cells (microscopic observation); assay type: cell-based
Experimental: as §1, with “microscopically.” for “microscopically. Cytotoxic effect of oxcetanocin on MT-4 cell was examined without adding virus according to the above technique.”

## Nc1ncnc2c1ncn2C1OC(CO)C1CO (centres unmarked) [Oxcetanocin, oxcetanocin]
[1]
  Toxicity: slightly toxic
mice
  Toxic sign: Any toxic sign has not been observed
MT-4 cell
  Cytotoxicity (in words): not cytotoxic
[2]
  Development of virus antigens (in words): very suppressive to development of virus antigens
[3]
  Inhibition of cytopathic effect (in words): predominantly inhibitory to cytopathic effect
